{
  "source": "patent US20210338662A1",
  "about": "“ALPHA-2-ADRENOCEPTOR SUBTYPE C (ALPHA-2C) ANTAGONISTS FOR THE TREATMENT OF SLEEP APNEA” (Bayer Aktiengeseilschaft, priority 2018, published 2021)",
  "test_system": "upper airway collapsibility in anaesthetized, spontaneously breathing pigs",
  "assay": "pig model of obstructive sleep apnea (OSA): upper airway collapsibility under negative pressure",
  "type": "in vivo, German Landrace pigs",
  "conditions": "i.v. bolus 1.5 mg/kg then i.v. infusion 0.475 mg/kg/h for four hours",
  "source_text": "The therapeutic potential of the compounds of formula (I) according to the present invention in sleep apnea has been assessed preclinically in a pig model of obstructive sleep apnea (OSA).\nUsing negative pressure, it is possible to induce collapse and thus obstruction of the upper respiratory tract in anaesthetized, spontaneously breathing pigs (Wirth K. J. et al., Sleep 36(5) (2013) pp. 699-708).\nGerman Landrace pigs are used for the model. The pigs are anaesthetized and tracheotomized. Two tracheal are inserted into the trachea, one into the rostral part and the other into the caudal part of the trachea. Using a connection piece, the rostral cannula is connected to a tube to the negative pressure device and to the distal tracheal cannula. The distal tracheal cannula is additionally connected to a tube with an open end to atmosphere via a connection piece that served for free tracheal breathing, circumventing the upper airway. By appropriate opening and clamping of those tubes breathing can be switched from nasal breathing to breathing through the caudal tracheal cannula, circumventing the upper airway, and the (isolated) upper airway can be connected to the negative pressure device, causing airflow in the inspiratory direction.\nAt certain points in time, the collapsibility of the upper respiratory tract is tested by having the pig breathe via the caudal cannula and applying negative pressures of −50, −100 and −150 cm water head (cm H2O) to the upper respiratory tract. This causes the upper respiratory tract to collapse, which manifests itself in an interruption of the airflow and a pressure drop in the tube system. This test is conducted prior to the administration of the test substance and at certain intervals after the administration of the test substance. An appropriately effective test substance can prevent this collapse of the respiratory tract in the inspiratory phase.\nFIG. 1: Effect of i.v. bolus injection of 1.5 mg/kg followed by an i.v. infusion of 0.475 mg/kg/h for four hours of the α2-Adrenoceptor subtype C (alpha-2C) antagonists of formula (I) ((S)-1-((2,3-dihydrobenzo[b][1,4]dioxin-2-yl)methyl)-4-(3-(methoxymethyl)pyridin-2-yl)piperazine given at time point 0 min on upper airway collapsibility at different levels of negative pressure. Percentages of pigs with no collapse are given. Mean values.",
  "key": {"[1]": {"conditions": "all negative pressures of −50, −100 and −150 cm"}, "[2]": {"conditions": "time 0 min (time point of administration), mean values"}},
  "data": [
    {"smiles": "COCc1cccnc1N1CCN(C[C@H]2COc3ccccc3O2)CC1", "note": "[(S)-1-((2,3-dihydrobenzo[b][1,4]dioxin-2-yl)methyl)-4-(3-(methoxymethyl)pyridin-2-yl)piperazine]", "values": [
      {"measurement": "duration of inhibition of upper airway collapsibility", "setting": "[1]", "value": "up to five"},
      {"measurement": "effect on upper airway collapsibility", "setting": "[1]", "value": "inhibited upper airway collapsibility"},
      {"measurement": "Percent pigs without collaps −50 cm H2O", "setting": "[2]", "value": 0, "unit": "%"},
      {"measurement": "Percent pigs without collaps −50 cm H2O", "setting": "time 10 min", "value": 100, "unit": "%"},
      {"measurement": "Percent pigs without collaps −50 cm H2O", "setting": "time 30 min", "value": 100, "unit": "%"},
      {"measurement": "Percent pigs without collaps −50 cm H2O", "setting": "time 60 min", "value": 100, "unit": "%"},
      {"measurement": "Percent pigs without collaps −50 cm H2O", "setting": "time 120 min", "value": 100, "unit": "%"},
      {"measurement": "Percent pigs without collaps −50 cm H2O", "setting": "time 180 min", "value": 100, "unit": "%"},
      {"measurement": "Percent pigs without collaps −50 cm H2O", "setting": "time 240 min", "value": 100, "unit": "%"},
      {"measurement": "Percent pigs without collaps −50 cm H2O", "setting": "time 300 min", "value": 100, "unit": "%"},
      {"measurement": "Percent pigs without collaps −50 cm H2O", "setting": "time 330 min", "value": 100, "unit": "%"},
      {"measurement": "Percent pigs without collaps −100 cm H2O", "setting": "[2]", "value": 0, "unit": "%"},
      {"measurement": "Percent pigs without collaps −100 cm H2O", "setting": "time 10 min", "value": 100, "unit": "%"},
      {"measurement": "Percent pigs without collaps −100 cm H2O", "setting": "time 30 min", "value": 100, "unit": "%"},
      {"measurement": "Percent pigs without collaps −100 cm H2O", "setting": "time 60 min", "value": 100, "unit": "%"},
      {"measurement": "Percent pigs without collaps −100 cm H2O", "setting": "time 120 min", "value": 100, "unit": "%"},
      {"measurement": "Percent pigs without collaps −100 cm H2O", "setting": "time 180 min", "value": 100, "unit": "%"},
      {"measurement": "Percent pigs without collaps −100 cm H2O", "setting": "time 240 min", "value": 100, "unit": "%"},
      {"measurement": "Percent pigs without collaps −100 cm H2O", "setting": "time 300 min", "value": 100, "unit": "%"},
      {"measurement": "Percent pigs without collaps −100 cm H2O", "setting": "time 330 min", "value": 100, "unit": "%"},
      {"measurement": "Percent pigs without collaps −150 cm H2O", "setting": "[2]", "value": 0, "unit": "%"},
      {"measurement": "Percent pigs without collaps −150 cm H2O", "setting": "time 10 min", "value": 100, "unit": "%"},
      {"measurement": "Percent pigs without collaps −150 cm H2O", "setting": "time 30 min", "value": 100, "unit": "%"},
      {"measurement": "Percent pigs without collaps −150 cm H2O", "setting": "time 60 min", "value": 100, "unit": "%"},
      {"measurement": "Percent pigs without collaps −150 cm H2O", "setting": "time 120 min", "value": 100, "unit": "%"},
      {"measurement": "Percent pigs without collaps −150 cm H2O", "setting": "time 180 min", "value": 100, "unit": "%"},
      {"measurement": "Percent pigs without collaps −150 cm H2O", "setting": "time 240 min", "value": 100, "unit": "%"},
      {"measurement": "Percent pigs without collaps −150 cm H2O", "setting": "time 300 min", "value": 100, "unit": "%"},
      {"measurement": "Percent pigs without collaps −150 cm H2O", "setting": "time 330 min", "value": 100, "unit": "%"}
    ]}
  ]
}
